Measurements published in patent US7449447B2, “Peptidomimetic NS3-serine protease inhibitors of hepatitis C virus” (priority 2003, dated 2008).

The compounds below were run against T1, HCV NS3/NS4a serine protease (Hepatitis C virus genotype 1b, UniProt P26663) (assay: Spectrophotometric assay for HCV protease inhibitory activity (chromogenic ester substrates)). Settings: Ki Rating, Table 2; single chain NS4A21-32-GSGS-NS3 3-181 protease, 30° C., pH 6.5.
T1 construct: amino terminus of the NS3 protease domain (amino acids 3-181) with a tetrapeptide linker; made in house; host or cells: E. coli
T1 sequence (P26663 1013-1207, looked up, natural form): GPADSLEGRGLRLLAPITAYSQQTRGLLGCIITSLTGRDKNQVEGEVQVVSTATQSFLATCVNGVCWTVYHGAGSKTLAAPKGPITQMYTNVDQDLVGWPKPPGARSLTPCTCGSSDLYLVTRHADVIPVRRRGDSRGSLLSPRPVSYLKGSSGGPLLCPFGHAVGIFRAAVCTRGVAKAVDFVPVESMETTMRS
Assay type: biochemical, hepatitis C virus (strain 1b)
Summary of the method: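 Single-chain NS4A(21-32)-GSGS-NS3(3-181) protease (genotype 1b) from E. coli was used at 1.3 nM in 25 mM MOPS pH 6.5 with 300 mM NaCl, 30 °C and 4% DMSO. Chromogenic ester substrate cleavage was followed as PAP release at 370 nm over 60 min. Ki was derived from vo/vi versus [I] plots assuming competitive inhibition.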

SMILES	Ki [nM]
CC(C)(C)OC(=O)N[C@H](C(=O)N1C[C@H]2[C@@H]([C@H]1C(=O)N[C@@H](CC(F)F)C(=O)NCCC(=O)O)C2(C)C)C(C)(C)C [Example 169]	> 500
CC(C)[C@H](NC(=O)N[C@H](C(=O)N1C[C@H]2[C@@H]([C@H]1C(=O)N[C@@H](CC(F)F)C(=O)O)C2(C)C)C(C)(C)C)C(=O)OC(C)(C)C [Example 153]	> 500
CC(C)[C@H](NC(=O)N[C@H](C(=O)N1C[C@H]2[C@@H]([C@H]1C(=O)NC(CC(F)F)C(=O)O)C2(C)C)C(C)(C)C)C(=O)OC(C)(C)C (some centres unmarked) [Example 159]	> 500
COC[C@@H](NC(=O)N[C@H](C(=O)N1C[C@H]2[C@@H]([C@H]1C(=O)N[C@@H](CC(F)F)C(=O)NCCc1ccc(C(=O)OC)cc1)C2(C)C)C(C)(C)C)C(C)(C)C [Example 142]	100 to 500
CC1(NC(=O)N[C@H](C(=O)N2C[C@H]3[C@@H]([C@H]2C(=O)N[C@@H](CC(F)F)C(=O)NCCC(=O)OC(C)(C)C)C3(C)C)C(C)(C)C)CCCCC1 [Example 155]	> 500
COC(=O)c1ccc(CCNC(=O)[C@H](CC(F)F)NC(=O)[C@@H]2[C@@H]3[C@H](CN2C(=O)[C@@H](NC(=O)N[C@H](C(=O)OC(C)(C)C)C(C)C)C(C)(C)C)C3(C)C)cc1 [Example 133]	100 to 500
COC(=O)c1ccc(CCNC(=O)[C@H](CC(F)F)NC(=O)[C@@H]2[C@@H]3[C@H](CN2C(=O)[C@@H](NC(=O)N[C@H](CNS(=O)(=O)c2ccccc2)C(C)C)C(C)(C)C)C3(C)C)cc1 [Example 130]	100 to 500
CC(C)[C@H](NC(=O)N[C@H](C(=O)N1C[C@H]2[C@@H]([C@H]1C(=O)N[C@@H](CC(F)F)C(=O)NCCc1ccc(C(N)=O)cc1)C2(C)C)C(C)(C)C)C(N)=O [Example 144]	100 to 500
CC(C)[C@H](NC(=O)N[C@H](C(=O)N1C[C@H]2[C@@H]([C@H]1C(=O)N[C@@H](CC(F)F)C(=O)NCCC(=O)O)C2(C)C)C(C)(C)C)C(=O)O [Example 160]	> 500
COC(=O)c1ccc(CCNC(=O)[C@H](CC(F)F)NC(=O)[C@@H]2[C@@H]3[C@H](CN2C(=O)[C@@H](NC(=O)N[C@H](C(=O)c2ccccc2)C(C)C)C(C)(C)C)C3(C)C)cc1 [Example 134]	100 to 500

Same assay, conditions: Ki, Table 1; single chain NS4A21-32-GSGS-NS3 3-181 protease, 30° C., pH 6.5

SMILES	Ki [nM]
CN(C[C@@H](NC(=O)N[C@H](C(=O)N1C[C@H]2[C@@H](C1C(=O)NC(CC(F)F)C(=O)NCCc1ccc(C(=O)O)cc1)C2(C)C)C(C)(C)C)C(C)(C)C)S(C)(=O)=O (some centres unmarked) [Example 104]	24
COC(=O)c1ccc(CCNC(=O)[C@H](CC(F)F)NC(=O)[C@@H]2[C@@H]3[C@H](CN2C(=O)[C@@H](NC(=O)NC2(CS(C)(=O)=O)CCCCC2)C(C)(C)C)C3(C)C)cc1 [Example 110]	40
CC(C)[C@H](NC(=O)N[C@H](C(=O)N1C[C@H]2[C@@H]([C@H]1C(=O)N[C@@H](CC(F)F)C(=O)NCCc1ccc(C(=O)O)cc1)C2(C)C)C(C)(C)C)C(=O)O [Example 113]	90
CC(C)(C)[C@H](NC(=O)NC1(CS(C)(=O)=O)CCCCC1)C(=O)N1C[C@H]2[C@@H](C1C(=O)N[C@@H](CC(F)F)C(=O)NCCc1ccc(C(=O)O)cc1)C2(C)C (some centres unmarked) [Example 107]	29
CN(C[C@@H](NC(=O)N[C@H](C(=O)N1C[C@H]2[C@@H](C1C(=O)N[C@@H](CC(F)F)C(=O)NCCc1ccc(C(N)=O)cc1)C2(C)C)C(C)(C)C)C(C)(C)C)S(C)(=O)=O (some centres unmarked) [Example 106]	27
COC(=O)c1ccc(CCNC(=O)[C@H](CC(F)F)NC(=O)[C@@H]2[C@@H]3[C@H](CN2C(=O)[C@@H](NC(=O)N[C@H](CN(C)S(C)(=O)=O)C(C)(C)C)C(C)(C)C)C3(C)C)c(Cl)c1 [Example 105]	24

Same assay, conditions: Ki, Table 3; rating; single chain NS4A21-32-GSGS-NS3 3-181 protease, 30° C., pH 6.5

SMILES	Ki [nM]
CN(C[C@@H](NC(=O)N[C@H](C(=O)N1C[C@H]2[C@@H]([C@H]1C(=O)N[C@@H](CC(F)F)C(=O)NCCCc1ccccc1)C2(C)C)C(C)(C)C)C(C)(C)C)S(C)(=O)=O [Example 220]	> 500
CN(C[C@@H](NC(=O)N[C@H](C(=O)N1C[C@H]2[C@@H]([C@H]1C(=O)N[C@@H](CC(F)F)C(=O)NCCCn1ccnc1)C2(C)C)C(C)(C)C)C(C)(C)C)S(C)(=O)=O [Example 239]	> 500
C[C@H](NC(=O)[C@H](CC(F)F)NC(=O)[C@@H]1[C@@H]2[C@H](CN1C(=O)[C@@H](NC(=O)N[C@H](CN(C)S(C)(=O)=O)C(C)(C)C)C(C)(C)C)C2(C)C)[C@H](O)c1ccccc1 [Example 248]	< 100
CN(C[C@@H](NC(=O)N[C@H](C(=O)N1C[C@H]2[C@@H]([C@H]1C(=O)N[C@@H](CC(F)F)C(=O)NCCC(c1ccccc1)c1ccccc1)C2(C)C)C(C)(C)C)C(C)(C)C)S(C)(=O)=O [Example 229]	> 500
CN(C[C@@H](NC(=O)N[C@H](C(=O)N1C[C@H]2[C@@H]([C@H]1C(=O)N[C@@H](CC(F)F)C(=O)N[C@H]1CCCC[C@H]1OCc1ccccc1)C2(C)C)C(C)(C)C)C(C)(C)C)S(C)(=O)=O [Example 256]	> 500
COc1ccc(CCNC(=O)[C@H](CC(F)F)NC(=O)[C@@H]2[C@@H]3[C@H](CN2C(=O)[C@@H](NC(=O)N[C@H](CN(C)S(C)(=O)=O)C(C)(C)C)C(C)(C)C)C3(C)C)cc1O [Example 295]	< 100
CN(C[C@@H](NC(=O)N[C@H](C(=O)N1C[C@H]2[C@@H]([C@H]1C(=O)N[C@@H](CC(F)F)C(=O)NCCCn1cccc1)C2(C)C)C(C)(C)C)C(C)(C)C)S(C)(=O)=O [Example 238]	> 500
COc1cccc(CCNC(=O)[C@H](CC(F)F)NC(=O)[C@@H]2[C@@H]3[C@H](CN2C(=O)[C@@H](NC(=O)N[C@H](CN(C)S(C)(=O)=O)C(C)(C)C)C(C)(C)C)C3(C)C)c1OC [Example 277]	100 to 500
CN(C[C@@H](NC(=O)N[C@H](C(=O)N1C[C@H]2[C@@H]([C@H]1C(=O)N[C@@H](CC(F)F)C(=O)N[C@@H]1C[C@@H]1c1ccccc1)C2(C)C)C(C)(C)C)C(C)(C)C)S(C)(=O)=O [Example 308]	< 100
CN(C[C@@H](NC(=O)N[C@H](C(=O)N1C[C@H]2[C@@H]([C@H]1C(=O)N[C@@H](CC(F)F)C(=O)NCCc1ccccn1)C2(C)C)C(C)(C)C)C(C)(C)C)S(C)(=O)=O [Example 235]	100 to 500
CN(C[C@@H](NC(=O)N[C@H](C(=O)N1C[C@H]2[C@@H]([C@H]1C(=O)N[C@@H](CC(F)F)C(=O)NCCc1c(F)cccc1F)C2(C)C)C(C)(C)C)C(C)(C)C)S(C)(=O)=O [Example 306]	< 100
COc1ccc(CCNC(=O)[C@H](CC(F)F)NC(=O)[C@@H]2[C@@H]3[C@H](CN2C(=O)[C@@H](NC(=O)N[C@H](CN(C)S(C)(=O)=O)C(C)(C)C)C(C)(C)C)C3(C)C)cc1Cl [Example 281]	< 100
CN(C[C@@H](NC(=O)N[C@H](C(=O)N1C[C@H]2[C@@H]([C@H]1C(=O)N[C@@H](CC(F)F)C(=O)NC1CCCC1)C2(C)C)C(C)(C)C)C(C)(C)C)S(C)(=O)=O [Example 207]	> 500
CN(C[C@@H](NC(=O)N[C@H](C(=O)N1C[C@H]2[C@@H]([C@H]1C(=O)N[C@@H](CC(F)F)C(=O)NCCc1ccccc1Cl)C2(C)C)C(C)(C)C)C(C)(C)C)S(C)(=O)=O [Example 251]	< 100
Cc1ccccc1CCNC(=O)[C@H](CC(F)F)NC(=O)[C@@H]1[C@@H]2[C@H](CN1C(=O)[C@@H](NC(=O)N[C@H](CN(C)S(C)(=O)=O)C(C)(C)C)C(C)(C)C)C2(C)C [Example 259]	< 100
CC(C)CCNC(=O)[C@H](CC(F)F)NC(=O)[C@@H]1[C@@H]2[C@H](CN1C(=O)[C@@H](NC(=O)N[C@H](CN(C)S(C)(=O)=O)C(C)(C)C)C(C)(C)C)C2(C)C [Example 208]	> 500
CC(C)CNC(=O)[C@H](CC(F)F)NC(=O)[C@@H]1[C@@H]2[C@H](CN1C(=O)[C@@H](NC(=O)N[C@H](CN(C)S(C)(=O)=O)C(C)(C)C)C(C)(C)C)C2(C)C [Example 206]	> 500
Cc1ccc(CCNC(=O)[C@H](CC(F)F)NC(=O)[C@@H]2[C@@H]3[C@H](CN2C(=O)[C@@H](NC(=O)N[C@H](CN(C)S(C)(=O)=O)C(C)(C)C)C(C)(C)C)C3(C)C)cc1C [Example 267]	< 100
CCOC(=O)N1CCC(NC(=O)[C@H](CC(F)F)NC(=O)[C@@H]2[C@@H]3[C@H](CN2C(=O)[C@@H](NC(=O)N[C@H](CN(C)S(C)(=O)=O)C(C)(C)C)C(C)(C)C)C3(C)C)CC1 [Example 227]	> 500
CN(C[C@@H](NC(=O)N[C@H](C(=O)N1C[C@H]2[C@@H]([C@H]1C(=O)N[C@@H](CC(F)F)C(=O)NCC1CCCCC1)C2(C)C)C(C)(C)C)C(C)(C)C)S(C)(=O)=O [Example 213]	> 500
CCN(CC)CCNC(=O)[C@H](CC(F)F)NC(=O)[C@@H]1[C@@H]2[C@H](CN1C(=O)[C@@H](NC(=O)N[C@H](CN(C)S(C)(=O)=O)C(C)(C)C)C(C)(C)C)C2(C)C [Example 234]	> 500
CN(C[C@@H](NC(=O)N[C@H](C(=O)N1C[C@H]2[C@@H]([C@H]1C(=O)N[C@@H](CC(F)F)C(=O)NCCc1ccc(-c3ccccc3)cc1)C2(C)C)C(C)(C)C)C(C)(C)C)S(C)(=O)=O [Example 288]	< 100
CC(CO)NC(=O)[C@H](CC(F)F)NC(=O)[C@@H]1[C@@H]2[C@H](CN1C(=O)[C@@H](NC(=O)N[C@H](CN(C)S(C)(=O)=O)C(C)(C)C)C(C)(C)C)C2(C)C (some centres unmarked) [Example 230]	> 500
CN(C[C@@H](NC(=O)N[C@H](C(=O)N1C[C@H]2[C@@H]([C@H]1C(=O)N[C@@H](CC(F)F)C(=O)NCc1ccccn1)C2(C)C)C(C)(C)C)C(C)(C)C)S(C)(=O)=O [Example 233]	> 500

Same assay, conditions: read-out: Ki Rating; Table 2; single chain NS4A21-32-GSGS-NS3 3-181 protease, 30° C., pH 6.5

SMILES	Ki [nM]
COC(=O)c1ccc(CCNC(=O)[C@H](CC(F)F)NC(=O)[C@@H]2[C@@H]3[C@H](CN2C(=O)[C@@H](NC(=O)N[C@H](C(=O)OC(C)(C)C)C(C)C)C(C)(C)C)C3(C)C)cc1 [Example 137]	100 to 500
